Measurements reported in paper PMC12040169 (PLOS Biology, 2025).

Experiment: in vitro
Conditions: human, hela cells, % viability

| SMILES | viability at 28.5 h, 10 µM [%] | viability at 28.5 h, 10 µM (bulk resorufin, single well) [%] |
| --- | --- | --- |
| O=C(CC1CCCC1)N1CCC(c2nnc(-c3ccsc3)o2)CC1 [CBK283381] | 106 |  |
| Cc1ccc(OC2(C(=O)N3CCCC3C(F)(F)F)CCNCC2)cc1 (stereo not shown) [CBK307226] | 82.5 |  |
| Nc1nc(N)c(Cc2ccc(Cl)cc2Cl)c(N)n1 [CBK009425] | 94.7 |  |
| Nc1c(-c2ccc3c(c2)CCO3)cnc2ncccc12 [CBK083678] | 96 |  |
| CN1C(=O)COc2ccccc2C/C=C/C[C@@H]2[C@H]1CCCN2C(=O)c1cnn2cccnc12 [CBK292083] | 109 |  |
| CCN1CCCC1CNc1c(Cl)c(Cl)nc2c1c(=O)n(C)c(=O)n2C (stereo not shown) [CBK007287] | 97.2 |  |
| Cc1cc2nc(NC(=N)N)[nH]c2cc1C [CBK003532] | 93.5 |  |
| O=C(NCC(F)F)c1cn2cc(-c3cccs3)n(CC3CC3)c(=O)c2n1 [CBK307347] | 105 |  |
| O=C(O)C1CCN(Cc2cnnn2-c2ccccc2F)CC1 [CBK287197] | 82.1 |  |
| Cc1nc(S(=O)(=O)N2CCOC3(CCCC3)C2)cn1C [CBK304834] | 109 |  |
| Cc1cc(=O)oc2cc(NC(=S)NNC(=O)C(C)Oc3ccc4c(c3)CCC4)ccc12 (stereo not shown) [CBK267031] | 91.4 |  |
| Cc1ccc(S(=O)(=O)Nc2ccc(Nc3cc(-c4cc(C(F)(F)F)cc(C(F)(F)F)c4)ncn3)cc2)cc1 [CBK090968] | 99.6 |  |
| O=S(=O)(NCCc1csc(-c2cccnc2)n1)c1cccnc1 [CBK287546] | 91.8 |  |
| CCn1c(=O)n(CC(=O)N2CCCCCC2)c2cccnc21 [CBK283942] | 97.1 |  |
| COc1cc(CC(=O)N2CCc3c(sc4ncnc(N)c34)C2)ccc1C [CBK306013] | 103 |  |
| c1ccc2cc(CCN3CCC(Oc4nccnc4OCCN4CCOCC4)CC3)ccc2c1 [CBK082942T] | 90.7 |  |
| O=C(Cn1c(C2CCNCC2)cc2cccnc21)N1CCCC1 [CBK285013] | 96.3 |  |
| CC(=O)N1CCC[C@H]2NC(=O)CNC(=O)C3(C/C=C/C[C@H]21)CCN(C(=O)C1CCC1)CC3 [CBK292177] | 109 |  |
| CCc1cc(C)cc(OCCOc2ccccc2C=C2C(=O)NC(=S)NC2=O)c1 [CBK263579] |  | 120 |
| Fc1ccc(SCCc2ccccn2)cc1 [CBK026491G] | 82.9 |  |
| c1c2c(cc3sc(N4CCCC4)nc13)OCCO2 [CBK287496] | 69.6 |  |
| O=C(CSc1nnc(-c2cccnc2)n1Cc1ccccc1)Nc1ccc(Br)cc1 [CBK267527] | 94.5 |  |

| SMILES | viability at 28.5 h, 10 µM [%] | viability at 28.5 h, 10 µM (bulk resorufin, single well) [%] |
| --- | --- | --- |
| O=C(CSc1nc(O)cc(=O)n1-c1ccccc1)c1ccccc1 [CBK261745] | 103 |  |
| Cc1cc(C)c2c(c1)COC1(CCNCC1)O2 [CBK061574] |  | 100 |
| COc1ccc2oc(=O)c(C(=O)Nc3ccc(C(=O)O)cc3)cc2c1 [CBK262242] | 98.4 |  |
| CCOC(=O)c1ccccc1OC(=O)c1ccc2c(c1)C1C=CCC1C(C(=O)O)N2 (stereo not shown) [CBK265155] | 101 |  |
| CC(Oc1ccc2c(c1)OCO2)C(=O)NNC(=O)Nc1cccc(Cl)c1Cl (stereo not shown) [CBK266852] | 86.5 |  |
| CCCc1cnc(N2CCN(CC(=O)Nc3ccc(C(C)=O)cc3)CC2)nc1 [CBK086194] | 104 |  |
| CCC1CCCN(C(=O)Cc2c(C)nc(-c3cccnc3)[nH]c2=O)C1 (stereo not shown) [CBK305801] | 91.7 |  |
| C=C(C)Cn1c(SCC(=O)O)nnc1-c1ccc([N+](=O)[O-])cc1 [CBK263159] | 89.8 |  |
| NS(=O)(=O)c1ccc(C(=O)Nc2cnc(-c3ccc(F)cc3)c(-c3ccsc3)n2)cc1 [CBK036998] | 98.8 |  |
| CC(C)(C)OC(=O)N1CCN(Cc2ccc(N)c3ccccc23)CC1 [CBK084530] | 109 |  |
| COc1ccc(C(=O)N2CCC3(CC2)NC(=O)c2cc(C)ccc2O3)cc1C [CBK166277] | 89 |  |
| COc1ccc2[nH]c(NCCCO)nc2c1 [CBK264155] | 91.2 |  |
| O=C(CN1C(=O)c2ccccc2S1(=O)=O)Nc1ccccc1-c1ccccc1 [CBK266390] | 102 |  |
| COC(=O)C(Nc1cccc(Cl)c1)(c1cc(OC)c(O)c(OC)c1)C(F)(F)F (stereo not shown) [CBK009591] | 96.6 |  |
| CN(C)CCOCCS(=O)(=O)c1ccc(N2CCC(c3ccc(Cl)cc3)=N2)cc1 [CBK018115] | 114 |  |
| COC(=O)c1ccc(OCCn2nc(C)c(C)c(C#N)c2=O)cc1 [CBK305676] | 69.5 |  |
| O=C1N=C(NC2CC3CCC2C3)SC12CCC2 (stereo not shown) [CBK073933] | 96.2 |  |
| Cc1cc(N2C(=O)CC(N3CCN(c4ccc(C(=O)c5cccs5)cc4)CC3)C2=O)no1 (stereo not shown) [CBK268701] | 84.4 |  |
| CSc1ccccc1NC(=O)Cn1c(-c2nonc2N)nc2ccccc21 [CBK266919] | 90 |  |
| Cc1n[nH]c(C)c1Sc1nnc(O)nc1O [CBK027833] | 87.2 |  |
| CCOC(=O)C1(Cc2cc(-c3ccccc3)no2)CCCNC1 (stereo not shown) [CBK284583] | 98.9 |  |
| Cc1cc(C)n(CC(C)NC(=O)c2cc(C(F)(F)F)nn2C)n1 (stereo not shown) [CBK281671] | 92.2 |  |

| SMILES | viability at 28.5 h, 10 µM [%] | viability at 28.5 h, 10 µM (bulk resorufin, single well) [%] |
| --- | --- | --- |
| COc1ncc(-c2cncc(N3CCN(c4ccccc4C#N)CC3)n2)c(OC)n1 [CBK037872] | 105 |  |
| CC(C)(C)c1ccc(NC(=O)N2CCCN(Cc3ccccc3)CC2)cc1 [CBK085876] | 116 |  |
| Cc1ccc(CNC(=O)C2CC(=O)N(c3cccc(C)c3C)C2)cc1 (stereo not shown) [CBK295183] | 97.5 |  |
| CCC(C(=O)NCCCN1CCOCC1)c1ccccc1 (stereo not shown) [CBK265103] | 116 |  |
| Cc1cc(C)n(CC2CCCN2C(=O)CCCc2ccccn2)n1 (stereo not shown) [CBK305920] | 105 |  |
| CSCCCNC(=O)N1CCCC(C(=O)O)C1 (stereo not shown) [CBK161343] | 92.1 |  |
| COc1ccccc1-c1cnc(N)c(NC2CCOCC2)n1 [CBK063853] | 104 |  |
| O=C(N[C@@H](Cn1cc(Cl)c(=O)[nH]c1=O)C(=O)O)C1CCCC1 [CBK289658] | 113 |  |
| Cn1c(=O)[nH]c(=O)c2c(-c3ccccc3)ccnc21 [CBK288136] | 72 |  |
| CC(C)c1ccc(C(C)NC(=O)c2ccc(=O)n(CC(=O)NC3CCCC3)c2)cc1 (stereo not shown) [CBK286038] | 97.4 |  |
| COc1cc(C)c(-c2nc(C)nc(C)c2C)c(C)c1 [CBK306711] | 90.5 |  |
| O=[N+]([O-])c1cc(S(=O)(=O)Nc2ccc3[nH]ncc3c2)ccc1Cl [CBK062537] | 84.6 |  |
| CCCNc1cncc(-c2cccnc2)n1 [CBK037921] | 99.1 |  |
| CCNC(=O)C1(Cc2ccc(-c3ccncc3)cc2)CCN(C(=O)CC2CCCCC2)CC1 [CBK285785] | 89.8 |  |
| Cc1cccc(N2CCN(CC(=O)Nc3cc(Cl)ccc3C#N)CC2)c1 [CBK306055] | 109 |  |
| CCOC(=O)CCNC(=O)N(CC)Cc1ccccc1 [CBK155228] | 88.7 |  |
| CC1SC2(C(=O)Nc3ccccc32)N(c2ccc(F)cc2)C1=O (stereo not shown) [CBK093463] | 96.8 |  |
| CCCCC(=O)Nc1ccc(C(=O)N2CCN(C)CC2)cc1 [CBK304662] | 105 |  |
| O=c1[nH]c2ncc(-c3ccc(OC(F)(F)F)cc3)nc2n1Cc1ccc(Cl)cc1 [CBK064409] | 103 |  |
| O=C(CNC1Cc2ccccc2C1)Nc1ccc(Cl)cc1C(=O)c1ccccc1Cl [CBK074764] | 100 |  |
